Reference: the supplement of paper PMC12420376

How the values were obtained:
KURAMOCHI = assay: drug sensitivity score (DSS2) on cancer cell count; higher = more sensitive; extreme values may be limits of the assay; details: 72 h
Method in brief: (§1)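 Ovarian cancer cells were cultured either alone or directly mixed 1:1 with lung or skin fibroblasts and plated onto 384-well plates acoustically pre-spotted with 528 approved and investigational compounds at 5 concentrations for 72 h of treatment. After fixation, cells were immunostained for CK8/18 with Hoechst and imaged at 10× across 4 fields to count cancer cells. Responses were fitted with 4-parameter logistic curves, and from these fits a drug sensitivity score was derived in Breeze, with screen quality assessed by Z'.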

OVCAR8 = assay: as above; details: 72 h
Method in brief: as §1

[1] = co-cultured fibroblast: BJHTERT
[2] = co-cultured fibroblast: none (monoculture)

SMILES	drug sensitivity score (KURAMOCHI; [1]) [DSS]	drug sensitivity score (KURAMOCHI; co-cultured fibroblast: WI38) [DSS]	drug sensitivity score (KURAMOCHI; [2]) [DSS]	drug sensitivity score (OVCAR8; [1]) [DSS]	drug sensitivity score (OVCAR8; co-cultured fibroblast: WI38) [DSS]	drug sensitivity score (OVCAR8; [2]) [DSS]
C1=N/C2=N/c3ccc(OCCN4CCCC4)c(c3)COC/C=C/COCc3cccc(c3)C(=C1)N2 [Pacritinib]	8.2	8.6	4.4	9.5	5.6	7.7
CC(=O)c1c(C)c2cnc(Nc3ccc(N4CCNCC4)cn3)nc2n(C2CCCC2)c1=O [Palbociclib]	6.2	7.5	13.9	6.6	0.3	3.9
COc1ccc(COc2cc3oc(=O)c4cc(C(C)O)ccc4c3cc2OC)cc1 (configuration not stated) [Palomid-529]	0	0	0	1.1	1	0
Cc1[nH]c2ccccc2c1CCNCc1ccc(/C=C/C(=O)NO)cc1 [Panobinostat]	14.8	19.4	21.8	28.1	20.1	26.4
Cc1ccc(Nc2nccc(N(C)c3ccc4c(C)n(C)nc4c3)n2)cc1S(N)(=O)=O [Pazopanib]	2	2	5.9	0	3.5	0
Nc1nc2[nH]cc(CCc3ccc(C(=O)N[C@@H](CCC(=O)O)C(=O)O)cc3)c2c(=O)[nH]1 [Pemetrexed]	10.1	16	13.6	16.4	19.3	25.5
OC[C@H]1O[C@@H](n2cnc3c2N=CNC[C@H]3O)C[C@@H]1O [Pentostatin]	0	0	0	0	2.8	0
CCCCCCCCCCCCCCCCCCOP(=O)([O-])OC1CC[N+](C)(C)CC1 [Perifosine]	0	0	0	0	0	0
NS(=O)(=O)OC[C@@H]1C[C@@H](n2ccc3c(N[C@H]4CCc5ccccc54)ncnc32)C[C@@H]1O [Pevonedistat]	14	19.1	18.2	20.9	12.5	26.4
FC(F)(F)c1ccc(CNc2ccc(Cc3c[nH]c4ncc(Cl)cc34)cn2)cn1 [Pexidartinib]	0	1.4	12.1	0	0.1	0.7
CS(=O)(=O)N1CCN(Cc2cc3nc(-c4cccc5[nH]ncc45)nc(N4CCOCC4)c3s2)CC1 [Pictilisib]	15	12.1	18.2	6.7	5.4	7.9
CC[C@@H]1C(=O)OC[C@@H]1Cc1cncn1C [Pilocarpine]	0	0	0	0	19.4	0
CC(C)N(C[C@H]1O[C@@H](n2cnc3c(N)ncnc32)[C@H](O)[C@@H]1O)[C@H]1C[C@@H](CCc2nc3cc(C(C)(C)C)ccc3[nH]2)C1 [Pinometostat]	0	0	0	0	0	0
Cc1ccc(=O)n(-c2ccccc2)c1 [Pirfenidone]	1.8	0	0	0	0.7	0
NCCNc1ccc(NCCN)c2c1C(=O)c1ccncc1C2=O [Pixantrone]	0	0.1	9.4	1.7	0	0
c1cc(CN2CCCNCCNCCCNCC2)ccc1CN1CCCNCCNCCCNCC1 [Plerixafor]	0	0	0.6	0.5	0	0.3
Nc1cccc2c1C(=O)N(C1CCC(=O)NC1=O)C2=O (configuration not stated) [Pomalidomide]	0	0	0	0	0	0
Cc1ccc(C(=O)Nc2ccc(CN3CCN(C)CC3)c(C(F)(F)F)c2)cc1C#Cc1cnc2cccnn12 [Ponatinib]	8.3	6.3	21.9	3.5	6.5	3.1
C=CC(=O)N1CCC(Oc2cc3c(Nc4ccc(Cl)c(Cl)c4F)ncnc3cc2OC)CC1 [Poziotinib]	4.4	7.9	3	4	0.2	0.3
CCCCc1nc2cc(/C=C/C(=O)NO)ccc2n1CCN(CC)CC [Pracinostat]	15.7	20.4	19.8	23.1	20.4	25.5
CC[C@H](C)C(=O)O[C@H]1C[C@H](O)C=C2C=C[C@H](C)[C@H](CC[C@@H](O)C[C@@H](O)CC(=O)O)[C@H]21 [Pravastatin]	0	0	0	0	1.9	0
C[C@]12C=CC(=O)C=C1CC[C@@H]1[C@@H]2[C@@H](O)C[C@@]2(C)[C@H]1CC[C@]2(O)C(=O)CO [Prednisolone]	0	0	0	0.3	0	0
